Laboratory results: patent publication US20250312320A1, “METHOD AND TREATMENT FOR OSTEOARTHRITIS AND DISEASES OF CHONDROCYTE HYPERTROPHY” (The Royal Veterinary College, priority 2022, published 2025)
Entries after “also recorded” stand apart in the source; their conditions may differ.

Assays:
[1] = system: primary equine chondrocytes; assay: Primary equine chondrocyte micromass treated with BI1347: gene expression; type: cell-based; conditions: 1 μM
Method: Articular cartilage was isolated, placed into a petri dish containing phosphate buffer saline (PBS) supplemented with 2% Ab/Am (PBS-Ab/Am) and transferred to a laminar flow hood for processing. Cartilage shavings were minced using a sterile scalpel to approximately 1 mm^3 and washed in fresh PBS-Ab/Am by centrifugation at 500×g for 10 minutes. Supernatant was removed and the cartilage pellet resuspended in 5 ml TrypLE™ (Gibco) before incubation at 37° C. for 10 minutes with gentle agitation. Dissociated cartilage fragments were pelleted and washed to remove excess TrypLE and resuspended in DMEM-complete media (DMEM/F12 (Gibco), 1% Ab/Am, 10% FBS) supplemented with 2 mg/ml Collagenase Type II and incubated overnight at 37° C. with gentle agitation. The cartilage digest was pelleted, washed and subsequently resuspended in DMEM-complete. Released cells were counted using a haematocytometer and seeded at 10,000 cells per cm^2. The cultures were incubated at 37° C., 5% CO2 in a humidified incubator for 2 days before refreshing DMEM-complete every 2 days until confluency. For differentiation experiments, primary chondrocytes were differentiated in DMEM/F12 containing 2% FBS, 1% Ab/Am, 1× Insulin-Transferrin-Selenium premix, 10 ng/ml TGFβ3 (primary chondrocyte differentiation media).
For primary equine chondrocytes, chondrocytes were seeded in 10 μl micromasses as above and differentiated for 14 days in presence of primary chondrocyte differentiation media supplemented with 1 μM BI1347 before processing for gene expression analysis as described above.

[2] = system: MC3T3 (subclone 14) osteoblast-like cells; assay: MC3T3 osteoblast-like cell mineralisation (alizarin red); type: cell-based
Method: 2×10^4 MC3T3 (subclone 14) osteoblast-like cells were seeded on a 24-well plate and cultured for 2 days in osteoblast growth media (Alpha-MEM supplemented with 10% FBS, 1% Ab/Am) before induction of differentiation with osteoblast differentiation media (Alpha-MEM, 10% FBS, 1% Ab/Am, 50 μg/ml ascorbic acid, 5 mM β-glycerophosphate) in the presence of 1 μM BI1347 or DMSO, with media changes every 2-3 days.
Another MC3T3 differentiation method was also carried out with MSC2530818 treatment. Briefly, MC3T3 cells were seeded as above and differentiated for 7 days in osteogenic induction media (Alpha-MEM, 10% FBS, 1% Ab/Am, 50 μg/ml ascorbic acid) with DMSO or 100 nM MSC2530818, before switching to osteogenic induction media with 2 mM β-glycerophosphate in the presence of 100 nM MSC2530818 or DMSO.
Cells were fixed in 95% ice-cold methanol and stained with 1% Alizarin Red on day 7, 10 and 14 of culture for BI1347 and on day 14 only for MSC2530818 treated cells to observe effects of compounds on mineralization compared to DMSO control. Alizarin red stain was leached and measured as previously described.

[3] = system: ATDC5 micromass; assay: Dose response of CDK8 inhibitors on ATDC5 micromass (alizarin red / alcian blue); type: cell-based, mouse; conditions: all concentrations (10 μM down to 0.1 nM), day 14
Method: (§1) In brief, 2 μl micromasses were seeded in a 96-well plate and cultured as previous in the presence of BI1347 and additional CDK8i compounds namely BRD6989, AS2863619, SEL120-34A, MSC2530818 and CCT251545. Compound concentrations were titrated 10-fold from 10 μM down to 0.1 nM. On day 14 micromasses were fixed, stained and subsequently leached to allow for dose response analysis to be conducted.
as §1, with “seeded on” for “seeded in”, “additional Mediator kinase inhibitor” for “additional CDK8i”

[4] = system: ATDC5 micromasses; assay: Phased dosing of CDK8i on ATDC5 micromasses (alcian blue / alizarin red); type: cell-based, mouse; conditions: 1 μM, phased dosing 2, 4, 6, 9, 11, 14 days, read day 14; all timepoints
Method: To understand the longevity of the CDK8i effect observed with BI1347 and MSC2530818, ATDC5 micromasses were exposed to a phased dosing regimen. This consisted of treating standard 10 μl ATDC5 micromasses with differentiation media containing 1 μM of BI1347 or MSC2530818 for 2 days before switching to control differentiation media for the remaining culture period ending on day 14 of differentiation. This was repeated for 4, 6, 9, 11 and 14 days of treatment. On day 14, cells were fixed and stained with alizarin red or alcian blue as previously described.

[5] = system: monolayer culture of ATDC5 cells; assay: Monolayer culture of ATDC5 cells, GAG deposition; type: cell-based, mouse; conditions: monolayer instead of micromass
[6] = system: ATDC5 micromasses; assay: Dose response of CDK8i on genes of interest in hypertrophic ATDC5 micromasses; type: cell-based, mouse; conditions: for gene expression of OA protective genes (TIMP4, MATN3, SMOC2, CNMD) / gene expression of hypertrophic/mineralised matrix marker IBSP: 1 μM, 100 nM or 10 nM, 14 day hypertrophic differentiation, vs DMSO; for dose response in gene expression: efficacy down to: 14 days differentiation to hypertrophy
Method: To confirm that the gene expression profile observed in the day 7 RNAseq dataset was reproducible in hypertrophic cells, we selected genes of interest from the RNAseq dataset and analysed gene expression analysis on hypertrophic ATDC5 cells. 2.7×10^5 ATDC5 cells were cultured in 10 μl micromasses in the presence of BI1347 and MSC2530818 at concentrations 1 μM, 100 nM, 10 nM and DMSO control for 7 days in differentiation media before switching to mineralisation media for 7 days. On day 14 cells were processed for qPCR analysis as previously described.

[7] = system: STR/Ort mouse (spontaneous osteoarthritis); assay: STR/Ort mouse 12 week study: gait analysis; type: in vivo; conditions: 5 mg/kg intermittently
Method: Following the pilot study, a larger in vivo study using the STR/Ort OA mouse model was conducted. Str/ORT male mice aged 22 weeks (post OA onset) were dosed with either DMSO (N=5) or MSC2530818 5 mg/kg (N=6) intermittently as above for 12 weeks.
On week 11 mice were placed on the DigiGate™ system (MouseSpecifics), a treadmill based video gait analysis software. For Gait analysis, each mouse was placed on the DigiGate™ and allowed to acclimatise for 5 minutes, the belt speed was then set to 13 cm/s for 10 seconds to capture videos of mice whilst walking. Videos were then cropped to 5 seconds of active walking and number of steps per hind limb was counted for each mouse.

SMILES | ACAN expression, increase vs DMSO ([1]; day 14) | RUNX2 expression vs DMSO ([1]; day 14) | SOX9 expression, increase vs DMSO ([1]; day 14 (N.S)) | COL2A1 expression, increase vs DMSO ([1]; day 14, N=1) | mineralisation by alizarin red stain vs DMSO ([2]; 1 μM, over 14 days culture) | alcian blue staining (GAG deposition) [3] | Glycosaminoglycan (GAG) deposition (leached alcian blue absorbances) vs DMSO [4] | Mineralization (leached alizarin red absorbances) vs DMSO [4] | changes in GAG deposition [5] | gene expression of OA protective genes (TIMP4, MATN3, SMOC2, CNMD) [6] | gene expression of hypertrophic/mineralised matrix marker IBSP [6] | dose response in gene expression: efficacy down to [6] | mineralisation by alizarin red stain vs DMSO ([2]; 100 nM, 14 days (AA day 0-7, AA + 2 mM BGP day 7-14)) | mineralisation by alizarin red stain vs DMSO ([2]; 100 nM, 14 days (AA day 0-7, AA + 2 mM BGP day 7-14), listed as MSC) | gait symmetry (left/right step ratio) ([7]; week 11) | number of steps per second, rear left limb, increase vs DMSO ([7]; week 11, MSC N=6, DMSO N=5) | number of steps per second, rear right limb, increase vs DMSO ([7]; week 11, MSC N=6, DMSO N=5)
CN(C)C(=O)Cn1cc(-c2ccc(-c3cncc4ccccc34)cc2)cn1 [BI1347] | 14 fold | identical; also recorded: no increase | 1.5 fold | 9 fold | completely inhibited mineralisation; also recorded: reduced mineralisation | maintained | increase in GAG deposition | decrease in mineralisation | not seen | dose dependent increase | dose dependent decrease | 10 nM |  |  |  |  | 
Cc1n[nH]c2ncc(C(=O)N3CCC[C@H]3c3ccc(Cl)cc3)cc12 [MSC2530818] |  |  |  |  |  | maintained | increase in GAG deposition | decrease in mineralisation | not seen | dose dependent increase | dose dependent decrease | 10 nM | mineralisation was ablated | ablation of mineralization | modified step symmetry; also recorded: closer to 1 | 1.25 fold | 1.5 fold
